The assay deals with CD2F1 mice, L1210 leukemia ip, survival T/C. Nature of the assay: NCI In Vivo Anticancer Drug Screen. Data for tumor model L1210 Leukemia (intraperitoneal) in CD2F1 (CDF1) mice. Conditions: endpoint: mean survival time, higher = longer survival. In a few lines: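 Antitumor effect is scored in animals hosting a serially transplanted tumor. Values compare compound-dosed animals against vehicle-only controls as a simple quotient.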

Where [1] appears, read: dose: 25.0 mg/kg/injection, schedule: Q04DX003 (ip), vehicle: saline with Tween-80.
Setting [2] is: dose: 50.0 mg/kg/injection, schedule: Q01DX009 (ip), vehicle: saline with Tween-80.
Where [3] appears, read: dose: 50.0 mg/kg/injection, schedule: Q04DX003 (ip), vehicle: saline with Tween-80.
Where [4] appears, read: dose: 100.0 mg/kg/injection, schedule: Q01DX009 (ip), vehicle: saline with Tween-80.
Setting [5] is: dose: 100.0 mg/kg/injection, schedule: Q04DX003 (ip), vehicle: saline with Tween-80.
The mark [6] stands for this setting: dose: 200.0 mg/kg/injection, schedule: Q04DX003 (ip), vehicle: saline with Tween-80.
Where [7] appears, read: dose: 200.0 mg/kg/injection, schedule: Q01DX009 (ip), vehicle: saline with Tween-80.
[8] abbreviates: dose: 200.0 mg/kg/injection, schedule: Q04DX002 (ip), vehicle: saline with Tween-80.
Where [9] appears, read: dose: 100.0 mg/kg/injection, schedule: Q04DX003 (ip), vehicle: Klucel (hydroxypropylcellulose) (HPC).
Setting [10] is: dose: 100.0 mg/kg/injection, schedule: Q01DX001 (ip), vehicle: saline with Tween-80.
The mark [11] stands for this setting: dose: 200.0 mg/kg/injection, schedule: Q01DX001 (ip), vehicle: saline with Tween-80.
Where [12] appears, read: dose: 400.0 mg/kg/injection, schedule: Q01DX001 (ip), vehicle: saline with Tween-80.
Where [13] appears, read: dose: 400.0 mg/kg/injection, schedule: Q04DX003 (ip), vehicle: saline with Tween-80.
Where [14] appears, read: dose: 150.0 mg/kg/injection, schedule: Q01DX001 (ip), vehicle: saline.

Where “and” joins values, the source holds several entries; their conditions need not be identical. Equal values may be shown once. Inconclusive results and toxic doses are left out.

On to `CCOC(=O)c1cnc(=O)[nH]c1N`, for which the T/C was 101 % of control (dose: 25.0 mg/kg/injection, schedule: Q01DX009 (ip), vehicle: saline with Tween-80); 104 % of control under setting [1]; 104 % of control under setting [2]; 98 % of control under setting [3]; 96 % of control under setting [4]; 89 % of control and 100 % of control under setting [5]. Besides, the T/C under setting [6] was 98 % of control.
Regarding `SCCS`, the T/C runs as follows: under setting [2], 105 % of control; under setting [4], 105 % of control; under setting [7], 94 % of control; under setting [8], 91 % of control.
`O=C(c1ccc(F)cc1)c1ccc([N+](=O)[O-])cc1`: the T/C is 103 % of control under setting [4]; 102 % of control under setting [7]; 97 % of control (dose: 400.0 mg/kg/injection, schedule: Q01DX009 (ip), vehicle: saline with Tween-80).
In the case of `COc1ccc([C@@H]2c3cc4c(cc3C[C@H]3COC(=O)[C@@H]32)OCO4)cc1OC`, the T/C reads like this: (dose: 11.0 mg/kg/injection, schedule: Q01DX009 (ip), vehicle: saline with Tween-80) 110 % of control; (dose: 22.0 mg/kg/injection, schedule: Q01DX009 (ip), vehicle: saline with Tween-80) 110 % of control; (dose: 33.0 mg/kg/injection, schedule: Q01DX009 (ip), vehicle: saline with Tween-80) 109 % of control; (dose: 67.0 mg/kg/injection, schedule: Q01DX009 (ip), vehicle: saline with Tween-80) 107 % of control.
On to `c1ccc([P+](c2ccccc2)(c2ccccc2)C2CCC2)cc1`, for which the T/C is 97 % of control (dose: 9.4 mg/kg/injection, schedule: Q04DX003 (ip), vehicle: saline); 102 % of control (dose: 18.8 mg/kg/injection, schedule: Q04DX003 (ip), vehicle: saline); 102 % of control (dose: 37.5 mg/kg/injection, schedule: Q04DX003 (ip), vehicle: saline).
Regarding `C(=N\Nc1nc2ccccc2s1)/c1ccc2ccccc2n1`, the T/C is, setting by setting: under setting [9], 95 % of control; (dose: 200.0 mg/kg/injection, schedule: Q04DX003 (ip), vehicle: Klucel (hydroxypropylcellulose) (HPC)) 94 % of control; (dose: 400.0 mg/kg/injection, schedule: Q04DX003 (ip), vehicle: Klucel (hydroxypropylcellulose) (HPC)) 94 % of control.
`Nc1ncnc(N)c1NC(=O)c1ccc(-c2ccccc2)cc1`: the T/C is 92 % of control under setting [1], 94 % of control under setting [3] and 103 % of control under setting [5].
As for `CCOC(=O)CCC(NC(=O)c1cccc(N(C)C=O)c1)C(=O)OCC` (stereo not drawn), the T/C reads like this: under setting [10], 110 % of control; under setting [5], 100 % of control; under setting [11], 110 % of control; under setting [6], 100 % of control; under setting [12], 113 % of control; under setting [13], 98 % of control.
In the case of `CCCCCC(C)NCCOC(=O)c1ccccc1` (stereo not drawn), the T/C is 103 % of control (dose: 75.0 mg/kg/injection, schedule: Q01DX001 (ip), vehicle: saline); 100 % of control under setting [14]; 108 % of control (dose: 300.0 mg/kg/injection, schedule: Q01DX001 (ip), vehicle: saline).
For `COc1cc2c(cc1OC)NC(=O)CC(=O)N2`, the T/C is 91 % of control under setting [6] and 98 % of control under setting [13].
Consider `CCOC(=O)C(OCc1ccccc1)(C(=O)N1CCCCCC1=O)C(C)C` (stereo not drawn), for which the T/C by setting is: under setting [5], 100 % of control; under setting [6], 105 % of control; under setting [13], 96 % of control.
Take `O=C(Sc1cccc2ccccc12)c1ccc([N+](=O)[O-])cc1`: the T/C is, setting by setting: under setting [10], 105 % of control; under setting [11], 92 % of control; under setting [12], 101 % of control.
Take `c1ccc2c(CC3=NCCN3)cccc2c1`: the T/C reads like this: (dose: 12.5 mg/kg/injection, schedule: Q04DX003 (ip), vehicle: saline with Tween-80) 98 % of control; under setting [3], 88 % of control; (dose: 50.0 mg/kg/injection, schedule: Q04DX003 (ip), vehicle: saline) 102 % of control.
For the compound `CN(C)C(=O)C1C2CCCC(CC2)C1C(=O)N(C)C` (stereo not drawn), the T/C (dose: 100.0 mg/kg/injection, schedule: Q04DX002 (ip), vehicle: saline) is 100 % of control; the T/C (dose: 200.0 mg/kg/injection, schedule: Q04DX002 (ip), vehicle: saline) is 91 % of control; the T/C (dose: 400.0 mg/kg/injection, schedule: Q04DX002 (ip), vehicle: saline) is 95 % of control.
In the case of `CC(CN(C)C)c1ccccn1` (stereo not drawn), the T/C is, setting by setting: (dose: 75.0 mg/kg/injection, schedule: Q01DX001 (ip), vehicle: other) 106 % of control; (dose: 150.0 mg/kg/injection, schedule: Q01DX001 (ip), vehicle: other) 106 % of control; (dose: 300.0 mg/kg/injection, schedule: Q01DX001 (ip), vehicle: other) 106 % of control.
In the case of `Cc1ncc(CO)c(CO)c1O`, the T/C was 100 % of control (dose: 100.0 mg/kg/injection, schedule: Q01DX009 (ip), vehicle: saline); 94 % of control (dose: 200.0 mg/kg/injection, schedule: Q01DX009 (ip), vehicle: saline); 95 % of control (dose: 400.0 mg/kg/injection, schedule: Q01DX009 (ip), vehicle: saline).
In the case of `ClCc1ccc(CCl)cc1`, the T/C is, setting by setting: (dose: 25.0 mg/kg/injection, schedule: Q04DX003 (ip), vehicle: Klucel (hydroxypropylcellulose) (HPC)) 98 % of control; (dose: 50.0 mg/kg/injection, schedule: Q04DX003 (ip), vehicle: Klucel (hydroxypropylcellulose) (HPC)) 105 % of control; under setting [9], 89 % of control.
Regarding `CCOC(=O)C(=CCBr)C(=O)OCC`, the T/C is, setting by setting: (dose: 1.56 mg/kg/injection, schedule: Q01DX009 (ip), vehicle: other) 100 % of control; (dose: 3.13 mg/kg/injection, schedule: Q01DX009 (ip), vehicle: other) 100 % of control; (dose: 6.25 mg/kg/injection, schedule: Q01DX009 (ip), vehicle: other) 107 % of control; (dose: 12.5 mg/kg/injection, schedule: Q01DX009 (ip), vehicle: other) 100 % of control; (dose: 25.0 mg/kg/injection, schedule: Q01DX009 (ip), vehicle: other) 102 % of control.
Consider `COc1cc(C=Nc2cc(Cl)c(O)c(Cl)c2)ccc1N(CCCl)CCCl`, for which the T/C was 120 % of control (dose: 12.5 mg/kg/injection, schedule: Q01DX001 (ip), vehicle: carboxymethylcellulose (CMC)) and 155 % of control (dose: 25.0 mg/kg/injection, schedule: Q01DX001 (ip), vehicle: carboxymethylcellulose (CMC)).
Consider `O=C(Nc1cccc(C(F)(F)F)c1)c1ccc(Cl)cc1`, for which the T/C (dose: 100.0 mg/kg/injection, schedule: Q04DX002 (ip), vehicle: saline with Tween-80) was 97 % of control; the T/C under setting [8] was 105 % of control; the T/C (dose: 400.0 mg/kg/injection, schedule: Q04DX002 (ip), vehicle: saline with Tween-80) was 105 % of control.
For `CNC(=O)NC1C(O)C(OC)OC2COC(c3ccccc3)OC21` (stereo not drawn), the T/C is, setting by setting: under setting [5], 97 % of control; under setting [6], 97 % of control; under setting [13], 95 % of control.
Consider `CCCC(C)(C)c1ccccc1`, for which the T/C is 104 % of control under setting [2], 96 % of control under setting [4] and 89 % of control under setting [7].
Take `Cc1cc(OCC(=O)O)ccc1Cl`: the T/C runs as follows: (dose: 50.0 mg/kg/injection, schedule: Q01DX009 (ip), vehicle: Klucel (hydroxypropylcellulose) (HPC)) 100 % of control; (dose: 100.0 mg/kg/injection, schedule: Q01DX009 (ip), vehicle: Klucel (hydroxypropylcellulose) (HPC)) 104 % of control; (dose: 200.0 mg/kg/injection, schedule: Q01DX009 (ip), vehicle: Klucel (hydroxypropylcellulose) (HPC)) 104 % of control.
In the case of `O=[N+]([O-])c1ccc(/C=N/O)o1`, the T/C was 93 % of control and 101 % of control (dose: 12.5 mg/kg/injection, schedule: Q01DX001 (ip), vehicle: saline); 102 % of control (dose: 25.0 mg/kg/injection, schedule: Q01DX001 (ip), vehicle: saline); 97 % of control and 102 % of control (dose: 50.0 mg/kg/injection, schedule: Q01DX001 (ip), vehicle: saline); 100 % of control and 101 % of control and 102 % of control (dose: 100.0 mg/kg/injection, schedule: Q01DX001 (ip), vehicle: saline); 100 % of control under setting [14].

Values taken from PubChem BioAssay AID256 (DTP/NCI, 2004).
